Assay results reported in US7384965B2, “Fused heterocyclic derivatives as PPAR modulators” (Eli Lilly and Company, priority 2003, dated 2008).

Compound | melting point
O=C(O)Cc1csc2cc(SCc3cccc4nc(-c5ccc(C(F)(F)F)cc5)oc34)ccc12 [Example 71, 6-[2-(4-Trifluoromethylphenyl)benzooxazol-7-ylmethylsulfanyl]benzo[b]thiophen-3-ylacetic Acid] | 208 to 210 °C
CCc1cc(SCc2cccc3nc(-c4ccc(C(F)(F)F)cc4)oc23)ccc1OCC(=O)O [Example 72, 2-Ethyl-4-[2-(4-trifluoromethylphenyl)benzooxazol-7-ylmethylsulfanyl]phenoxyacetic Acid] | 170 to 173 °C
O=C(O)Cc1cccc(SCc2cccc3nc(-c4ccc(C(F)(F)F)cc4)oc23)c1 [Example 73, 3-[2-(4-Trifluoromethylphenyl)benzooxazol-7-ylmethylsulfanyl]phenylacetic Acid] | 147 to 149 °C
Cc1cc(SCc2cccc3nc(-c4ccc(C(F)(F)F)cc4)oc23)ccc1OCC(=O)O [Example 74, 2-Methyl-4-[2-(4-trifluoromethylphenyl)benzooxazol-7-ylmethylsulfanyl]phenoxyacetic Acid] | 172 to 174 °C
Cc1cc(SC(C)(C)c2cccc3nc(-c4ccc(C(F)(F)F)cc4)oc23)ccc1OCC(=O)O [Example 75, 2-Methyl-4-{1-methyl-1-[2-(4-trifluoromethylphenyl)benzooxazol-7-yl]ethylsulfanyl}phenoxyacetic Acid] | 131 to 133 °C
Cc1cc(SC(C)(C)c2cccc3nc(-c4ccc(C(F)(F)F)cc4)oc23)ccc1CCC(=O)O [Example 76, 3-(2-Methyl-4-{1-methyl-1-[2-(4-trifluoromethylphenyl)benzooxazol-7-yl]ethylsulfanyl}phenyl)propionic Acid] | 104 to 107 °C
CCc1cc(SC(C)(C)c2cccc3nc(-c4ccc(C(F)(F)F)cc4)oc23)ccc1OCC(=O)O [Example 77, 2-Ethyl-4-{1-methyl-1-[2-(4-trifluoromethylphenyl)benzooxazol-7-yl]ethylsulfanyl}phenoxyacetic Acid] | 122 to 125 °C
CC(C)(Sc1ccc2c(CC(=O)O)csc2c1)c1cccc2nc(-c3ccc(C(F)(F)F)cc3)oc12 [Example 78, 6-{1-Methyl-1-[2-(4-trifluoromethylphenyl)benzooxazol-7-yl]ethylsulfanyl}benzo[b]thiophen-3-ylacetic Acid] | 110 to 113 °C
Cc1cc(SCc2cccc3[nH]c(-c4ccc(C(F)(F)F)cc4)nc23)ccc1OCC(=O)O [Example 85, 2-Methyl-4-[2-(4-trifluoromethylphenyl)-1H-benzoimidazol-4-ylmethylsulfanyl]phenoxyacetic Acid] | 238 to 240 °C (dec.)
Cc1cc(SCc2cccc3[nH]c(-c4ccc(C(F)(F)F)cc4)nc23)ccc1CCC(=O)O [Example 86, 3-{2-Methyl-4-[2-(4-trifluoromethylphenyl)-1H-benzoimidazol-4-ylmethylsulfanyl]phenyl}propionic Acid] | 214 to 216 °C
CCc1cc(SCc2cccc3[nH]c(-c4ccc(C(F)(F)F)cc4)nc23)ccc1OCC(=O)O [Example 87, 2-Ethyl-4-[2-(4-trifluoromethylphenyl)-1H-benzoimidazol-4-ylmethylsulfanyl]phenoxyacetic Acid] | 223 °C (dec.)
O=C(O)Cc1cccc(SCc2cccc3[nH]c(-c4ccc(C(F)(F)F)cc4)nc23)c1 [Example 88, 3-[2-(4-Trifluoromethylphenyl)-1H-benzoimidazol-4-ylmethylsulfanyl]phenylacetic Acid] | 180 to 183 °C
Cc1cc(SCc2cccc3c2nc(-c2ccc(C(F)(F)F)cc2)n3C)ccc1OCC(=O)O [Example 89, 2-Methyl-4-[1-methyl-2-(4-trifluoromethylphenyl)-1H-benzoimidazol-4-ylmethylsulfanyl]phenoxyacetic Acid] | 192 to 194 °C
Cc1cc(SCc2cccc3c2nc(-c2ccc(C(F)(F)F)cc2)n3C)ccc1CCC(=O)O [Example 90, 3-{2-Methyl-4-[1-methyl-2-(4-trifluoromethylphenyl)-1H-benzoimidazol-4-ylmethylsulfanyl]phenyl}propionic Acid] | 168 to 170 °C
CCc1cc(SCc2cccc3c2nc(-c2ccc(C(F)(F)F)cc2)n3C)ccc1OCC(=O)O [Example 91, 2-Ethyl-4-[1-methyl-2-(4-trifluoromethylphenyl)-1H-benzoimidazol-4-ylmethylsulfanyl]phenoxyacetic Acid] | 178 to 180 °C
Cn1c(-c2ccc(C(F)(F)F)cc2)nc2c(CSc3cccc(CC(=O)O)c3)cccc21 [Example 92, 3-[1-Methyl-2-(4-trifluoromethylphenyl)-1H-benzoimidazol-4-ylmethylsulfanyl]phenylacetic Acid] | 178 to 180 °C
Cc1cc(SCc2cccc3[nH]c(-c4ccc(C(F)(F)F)cc4)cc23)ccc1OCC(=O)O [Example 93, 2-Methyl-4-[2-(4-trifluoromethylphenyl)-1H-indol-4-ylmethylsulfanyl]phenoxyacetic Acid] | 85 to 88 °C
CCc1cc(SCc2cccc3[nH]c(-c4ccc(C(F)(F)F)cc4)cc23)ccc1OCC(=O)O [Example 94, 2-Ethyl-4-[2-(4-trifluoromethylphenyl)-1H-indol-4-ylmethylsulfanyl]phenoxyacetic Acid] | 174 to 176 °C
Cc1cc(SCc2ccnc3oc(-c4ccc(C(F)(F)F)cc4)nc23)ccc1OCC(=O)O [Example 95, 2-Methyl-4-[2-(4-trifluoromethylphenyl)oxazolo[5,4-b]pyridine-7-ylmethylsulfanyl]phenoxyacetic Acid] | 154 to 157 °C
Cc1cc(SCc2ccnc3oc(-c4ccc(C(F)(F)F)cc4)nc23)ccc1CCC(=O)O [Example 96, 3-{2-Methyl-4-[2-(4-trifluoromethylphenyl)oxazolo[5,4-b]pyridin-7-ylmethylsulfanyl]phenyl}propionic Acid] | > 260 °C (dec.)
CCc1cc(SCc2ccnc3oc(-c4ccc(C(F)(F)F)cc4)nc23)ccc1OCC(=O)O [Example 97, 2-Ethyl-4-[2-(4-trifluoromethylphenyl)oxazolo[5,4-b]pyridin-7-ylmethylsulfanyl]phenoxyacetic Acid] | 59 to 62 °C
O=C(O)Cc1csc2cc(SCc3ccnc4oc(-c5ccc(C(F)(F)F)cc5)nc34)ccc12 [Example 98, 6-[2-(4-Trifluoromethylphenyl)oxazolo[5,4-b]pyridine-7-ylmethylsulfanyl]benzo[b]thiophen-3-ylacetic Acid] | 203 to 205 °C
O=C(O)Cc1cccc(SCc2ccnc3oc(-c4ccc(C(F)(F)F)cc4)nc23)c1 [Example 99, 3-[2-(4-Trifluoromethylphenyl)oxazolo[5,4-b]pyridin-7-ylmethylsulfanyl]phenylacetic Acid] | 164 to 166 °C
Cc1cc(SCc2ccnc3sc(-c4ccc(C(F)(F)F)cc4)nc23)ccc1OCC(=O)O [Example 100, 2-Methyl-4-[2-(4-trifluoromethylphenyl)thiazolo[5,4-b]pyridine-7-ylmethylsulfanyl]phenoxyacetic Acid] | 82 to 85 °C
Cc1cc(SCc2ccnc3sc(-c4ccc(C(F)(F)F)cc4)nc23)ccc1CCC(=O)O [Example 101, 3-{2-Methyl-4-[2-(4-trifluoromethylphenyl)thiazolo[5,4-b]pyridin-7-ylmethylsulfanyl]phenyl}propionic Acid] | 65 to 70 °C
